# Where two headings read alike, the source gives them in different places.
# How the values were obtained:
# human neutrophils = experiment: Modified Boyden chamber chemotaxis (LTB4, human neutrophils); assay type: cell-based; details: Neutrophil
# Description: Human neutrophils were isolated from citrated peripheral blood using standard techniques of dextran sedimentation, followed by centrifugation on Histopaque® sterile solution (Sigma) or Ficoll-paque® (Pharmacia) and hypotonic lysis of erythrocytes. A final cell suspension of 3.4×10^6 neutrophils/ml of HEPES-buffered Hanks balanced salt solution (HBSS, pH 7.3) was added to the upper well (0.8 ml) of a modified Boyden chamber (blind well). The lower well (0.2 ml), separated by a polycarbonate membrane (Nuleopore Corp.), contained HBSS or 3×10^-8 M LTB4 in the presence of absence of test compound. Following a 90 minute incubation at 37° C. in 5% CO2 -95% air, cells from the lower well were lysed and nuclei counted in a Model S-Plus-IV Coulter Counter. Percent inhibition was calculated from cell counts corrected for random migration by subtracting the mean of the HBSS control.
# guinea pig ileum = target: T1, guinea pig ileum (Cavia porcellus, UniProt Q2NNR5); experiment: LTD4 antagonism in guinea pig ileum (contraction)
# T1 construct: from tissue; host or cells: guinea pig ileum segments
# T1 sequence (Q2NNR5 1-340): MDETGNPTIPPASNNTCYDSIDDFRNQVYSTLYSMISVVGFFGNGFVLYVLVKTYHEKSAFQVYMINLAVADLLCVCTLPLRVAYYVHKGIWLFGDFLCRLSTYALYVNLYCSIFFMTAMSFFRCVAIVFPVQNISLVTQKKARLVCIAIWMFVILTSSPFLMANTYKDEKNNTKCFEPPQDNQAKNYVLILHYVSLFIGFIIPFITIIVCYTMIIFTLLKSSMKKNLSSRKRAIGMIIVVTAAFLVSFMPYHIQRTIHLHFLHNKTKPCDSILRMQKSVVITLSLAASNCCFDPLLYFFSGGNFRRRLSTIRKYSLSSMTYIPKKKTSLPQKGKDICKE
# Description: Fresh segments of guinea pig ileum were suspended in 2 ml. tissue baths containing oxygenated modified Tyrodes solution. […] The ileum segments were washed and rested between exposures to agonist. Following this, the tissues were incubated with a single concentration of test compound and the agonist dose-response procedure was repeated. The dose ration is a measure of the antagonist's ability to shift the agonist dose-response curve to the right. It is derived as the concentration of agonist necessary to reach a given response level in the present (A') versus the absence (A) of antagonist. For example, if the test concentration of compound had no effect on the agonist-induced response (A'=A) the dose-ratio would approximate 1. […] One dose-ratio value is determined for each strip of ileum used to test antagonist. […] Schild analysis examines the linearity of the function described by the dose-ratios written as log (A'/A) versus antagonist concentration. If linearity is confirmed and the slope approximates -1, inhibition is considered to be competitive. […] This value is considered to be a measure of the affinity of the competitive antagonist.
# LTD4 receptor = target: T2, LTD4 receptor (Cavia porcellus, UniProt Q2NNR5); experiment: LTD4 receptor binding assay using guinea pig lung membrane preparations
# T2 construct: from tissue; host or cells: lung membranes of male Hartley guinea pigs
# T2 sequence (Q2NNR5 1-340): T1 sequence (Q2NNR5 1-340)
# Description: MEMBRANE PREPARATIONS: For each membrane preparation, 10-11 male Hartley guinea pigs, weighing less than 350 gm, were sacrificed by guillotine. The lungs were rapidly removed and placed in ice-cold 50 mM Trisma 7.0 buffer. After all the lungs were collected, each was probed free of bronchial tissue to at least the level of tertiary branching as observed through a dissecting lamp. The tissue was minced with a razor blade on a damp paper towel and placed into fresh ice-cold Trisma 7.0 buffer. When all the tissues had been processed, they were pooled, drained and weighed. Nine volumes of cold buffer were added and the tissue was polytroned for 6-10 second bursts with a 1 minute cool down period in an ice bath between each burst. The homogenate was filtered through a gauze pad and centrifuged at 1085× g for 15 minutes at 4° C. Supernatants were saved and centrifuged at 40,000× g for 20 minutes at 4° C. This time, supernatants were discarded and the pellets were resuspended in 30-35 ml fresh Trisma 7.0 buffer by 1-10 second bursts with the polytron. The materials were centrifuged again at 40,000× g. Supernatants were again discarded. Each pellet was resuspended again with approximately 7 ml buffer. All this material was pooled into a 100 ml polypropylene container and stirred with a magnetic stirring bar. The tubes were rinsed with small amounts of buffer and the rinse was added to the membrane preparation. The homogenized membranes were aliquoted into 1.5 ml microfuge tubes and frozen at -70° C. Three aliquots were submitted for protein determinations by FPB (fluorescamine protein binding) assay.
# Unless otherwise indicated, all binding experiments were performed in a final incubation volume of 250 μl. […] Both materials were received in solutions. […] Both solutions were brought to appropriate assay concentrations by dilution in assay buffer consisting of 50 mM Trisma 7.4 with 5 mM L-cysteine and 20 mM CaCl2. Membranes were also diluted with this assay buffer. […] Diluent was added to all other appropriate control tubes. Incubations were conducted for 30 minutes at 25° C. in a shaking water bath. Termination of the reaction was achieved by pouring the incubate over 2.5 cm Whatman GF/C filters soaked in assay buffer and set over the ports of Millipore filter vacuum manifolds. Filters were rinsed with 4 ml ice cold assay buffer 3 times. The filters were removed, placed in 10 ml Aquasol scintillation cocktail and allowed to cool in the dark for 2 hours prior to counting. All samples were corrected for background and isotope decay before converting DPM determination to mass.
# These values were logit-transformed and linear regression was performed on the dose-response data. All dose-response sets used to calculate IC50 values contained data from 3-6 compound concentrations. […] IC50 values were calculated from the regression equation for the line.
# male guinea pig lung homogenate which was aliquoted and stored at
# -70° C. The particular preparation used to test the compounds of
# Protein concentrations in these assays were adjusted
# to provide aproximately 0.1 nM receptor in the presence of lnM ^3
# HLTD4. Incubation was conducted for 30 min.
# at 24° C. and filtration methods were used to separate bound from
# tested were intially solubilized in DMSO. Each compound was evaluated at
# dose of 10 μM (10^-5 M) in triplicate in 2 separate assays. The
# LTB4 receptor = target: T3, LTB4 receptor (Homo sapiens, UniProt Q15722); experiment: LTB4 receptor binding assay ((3H) LTB4, human neutrophils)
# T3 construct: Neutrophils were purified from venous blood of normal human donors; endogenous in cells; host or cells: purified human blood neutrophils (intact cells)
# Description: Neutrophils (4-6×10^6) in 1 ml Hanks' balanced salt solution containing 10 mM HEPES buffer (HBSS), pH 7.4 and 30 μM nordihydroguaiaretic acid were incubated with 0.6×10^-9 M (^3 H) LTB4 in the presence or absence of test compounds. The incubation was carried out at 0° C. for 45 minutes and terminated by adding 5 ml of ice-cold HBSS followed by rapid filtration of incubation mixture under vacuum through GF/C glass fiber filters. The filters were further washed with 10 ml HBSS and radioactivity was determined. Specific binding was defined as the difference between total binding and nonspecific binding which was not displaced by 10^-7 M unlabeled LTB4. All data refer to specific binding.
# [1] = relative to Compound III where --OCH3 is replaced with --OH
# T3 sequence (Q15722 whole entry): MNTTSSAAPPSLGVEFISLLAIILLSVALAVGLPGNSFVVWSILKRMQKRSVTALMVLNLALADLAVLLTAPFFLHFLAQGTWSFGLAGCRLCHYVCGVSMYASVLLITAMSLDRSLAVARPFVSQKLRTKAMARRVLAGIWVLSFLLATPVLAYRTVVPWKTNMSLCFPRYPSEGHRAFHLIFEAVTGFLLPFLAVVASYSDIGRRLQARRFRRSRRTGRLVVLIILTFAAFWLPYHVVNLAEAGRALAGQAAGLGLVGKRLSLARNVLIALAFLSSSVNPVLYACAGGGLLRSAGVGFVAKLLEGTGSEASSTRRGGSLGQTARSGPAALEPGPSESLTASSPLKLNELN
compound,measurement,setting,value
"CCCc1c(OCCCOc2ccc(C(C)=O)c(OC)c2CCC)ccc2c1OC(C(=O)O)CC2 (stereo not drawn) [Example 1, 7-[3-(4-acetyl-3-methoxy-2-propylphenoxy)propoxy]-3,4-dihydro-8-propyl-2H-1-benzopyran-2-carboxylic acid]",IC50,human neutrophils,3000 nM
same,Kb,guinea pig ileum; read-out: Guinea Pig Ileum Contraction pA2 (converted),≥ 316 nM
same,less active as an LTD4 antagonist in the guinea pig ileum smooth muscle contraction test,guinea pig ileum; [1],at least 10 ×
same,Receptor Binding LTD4 IC50,"LTD4 receptor; Table 1, results are from Table 3, 10^-5 M",Inactive
same,inhibition at 10 µM,LTD4 receptor; read-out: LTD4 Receptor Binding Activity,< 45%
same,inhibition at 10 µM,"LTD4 receptor; read-out: LTD4 Receptor Binding Percent Inhibition, Test #1, triplicate, 30 min, 24° C.",4.07%
same,inhibition at 10 µM,"LTD4 receptor; read-out: LTD4 Receptor Binding Percent Inhibition, Test #2, triplicate, 30 min, 24° C.",16.4%
same,inhibition at 0.3 µM,"LTB4 receptor; 0.75 h, read-out: LTB4 Receptor Binding (percent at stated concentration)",50%
same,more potent than the --OH compound in LTB4 receptor binding,LTB4 receptor; [1],about 5 ×
